Like-named read-outs stand apart in the source and are kept apart here.
Assays:
KRAS G12D = KRAS G12D (Homo sapiens (Human), UniProt P01116, G12D); assay: KRAS G12D LoEnz Biochemical Assay, BODIPY-GDP Exchange TR-FRET (SOS1-mediated nucleotide exchange); details: read-out: KRas (G12D) GDP HTRF IC50
KRAS WT = KRAS WT (Homo sapiens (Human), UniProt P01116); assay: KRAS WT Biochemical Assay, BODIPY-GDP Exchange TR-FRET (Example 501; 3 nM KRAS WT, 3 nM SOS1, 60-minute incubation)
In short: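 SOS1-mediated exchange assay: 3 nM biotin-KRAS WT with terbium-streptavidin, started with 3 nM SOS1 and 300 nM BODIPY-GDP, HEPES pH 7.5 with MgCl2. TR-FRET (520/490 nm) read after 60 min; normalized to DMSO and full-inhibition control, IC50 from 4-parameter Hill fit.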

Chain of KRAS WT (P01116-2 other isoform, or with tags, fused parts or gaps): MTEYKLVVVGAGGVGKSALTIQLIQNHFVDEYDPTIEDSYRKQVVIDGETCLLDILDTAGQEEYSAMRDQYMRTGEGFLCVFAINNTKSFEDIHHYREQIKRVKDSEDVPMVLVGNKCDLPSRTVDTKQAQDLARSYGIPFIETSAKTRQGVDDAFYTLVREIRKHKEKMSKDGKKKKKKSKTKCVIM
Chain of KRAS G12D (P01116-2 other isoform, or with tags, fused parts or gaps G12D): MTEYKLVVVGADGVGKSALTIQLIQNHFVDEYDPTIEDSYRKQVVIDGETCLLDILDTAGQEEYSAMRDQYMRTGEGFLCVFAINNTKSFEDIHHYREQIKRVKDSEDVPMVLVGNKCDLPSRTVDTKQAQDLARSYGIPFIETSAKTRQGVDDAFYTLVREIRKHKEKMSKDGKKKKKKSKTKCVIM

Compound	IC50 (KRAS G12D) [nM]	IC50 (KRAS WT; read-out: KRas HTRF IC50) [nM]	IC50 (KRAS WT; read-out: KRas(wt) GDP HTRF IC50) [nM]
Cc1nc(N)cc(-c2nc3c4c(nc(OCC5(CN6C7CCC6COC7)CC5)nc4c2F)N2C[C@H]4CC[C@H](N4)[C@H]2[C@H](C)O3)c1C(F)(F)F [Compound 206, 4-((5S,5aS,6S,9R)-12-((1-((3-Oxa-8-azabicyclo[3.2.1]octan-8-yl)methyl)cyclopropyl)methoxy)-1-fluoro-5-methyl-5a,6,7,8,9,10-hexahydro-5H-4-oxa-3,10a,11,13,14-pentaaza-6,9-methanonaphtho[1,8-ab]heptalene-2-yl)-6-methyl-5-(trifluoromethyl)pyridin-2-amine]	0.17	24.2	
Cc1nc(N)cc(-c2nc3c4c(nc(OC[C@@]56CCCN5C[C@H](F)C6)nc4c2F)N2C[C@H]4CC[C@H](N4)[C@H]2[C@H](C(F)(F)F)O3)c1C(F)(F)F [Compound 242, 4-((5R,5aS,6S,9R)-1-Fluoro-12-(((2R,7aS)-2-fluorotetrahydro-1H-pyrrolizin-7a(5H)-yl)methoxy)-5-(trifluoromethyl)-5a,6,7,8,9,10-hexahydro-5H-4-oxa-3,10a,11,13,14-pentaaza-6,9-methanonaphtho[1,8-ab]heptalen-2-yl)-6-methyl-5-(trifluoromethyl)pyridin-2-amine]	0.33	5.29	
Cc1c(F)c(N)cc(-c2nc3c4c(nc(OC[C@@]56CCCN5C[C@H](F)C6)nc4c2F)N2C[C@H]4CC[C@H](N4)[C@@H]2[C@H](C)O3)c1C(F)(F)F (single isomer, unassigned) [237 (isomer 1)]	1910	1020	
C[C@@H]1Oc2nc(-c3c(F)ccc4cc[nH]c(=O)c34)c(F)c3nc(OC[C@@]45CCCN4C[C@H](F)C5)nc(c23)N2C[C@H]3CC[C@H](N3)[C@@H]12 [Compound 196, 7-Fluoro-8-((5S,5aS,6S,9R)-1-fluoro-12-(((2R,7aS)-2-fluorotetrahydro-1H-pyrrolizin-7a(5H)-yl)methoxy)-5-methyl-5a,6,7,8,9,10-hexahydro-5H-4-oxa-3,10a,11,13,14-pentaaza-6,9-methanonaphtho[1,8-ab]heptalen-2-yl)isoquinolin-1(2H)-one]	248	20100	
Cc1nc(N)cc(-c2nc3c4c(nc(OCC5(CN6C[C@@H]7C[C@H]6CO7)CC5)nc4c2F)N2C[C@H]4CC[C@H](N4)[C@H]2[C@H](C)O3)c1C(F)(F)F [Compound 208, 4-((5S,5aS,6S,9R)-12-((1-(((1S,4S)-2-Oxa-5-azabicyclo[2.2.1]heptan-5-yl)methyl)cyclopropyl)methoxy)-1-fluoro-5-methyl-5a,6,7,8,9,10-hexahydro-5H-4-oxa-3,10a,11,13,14-pentaaza-6,9-methanonaphtho[1,8-ab]heptalene-2-yl)-6-methyl-5-(trifluoromethyl)pyridin-2-amine]	0.31	24.7	
Cc1nc(N)cc(-c2nc3c4c(nc(OC[C@@]56CCCN5CC5(CC5(F)F)C6)nc4c2F)N2C[C@H]4CC[C@H](N4)[C@H]2[C@H](C(F)(F)F)O3)c1C(F)(F)F (stereo partly drawn) [Compound 254, 4-((5R,5aS,6S,9R)-12-(((7a′S)-2,2-Difluorodihydro-1′H,3′H-spiro[cyclopropane-1,2′-pyrrolizin]-7a′(5′H)-yl)methoxy)-1-fluoro-5-(trifluoromethyl)-5a,6,7,8,9,10-hexahydro-5H-4-oxa-3,10a,11,13,14-pentaaza[6,9]methanonaphtho[1,8-ab]heptalene-2-yl)-6-methyl-5-(trifluoromethyl)pyridin-2-amine]	0.49	1.25	
C#Cc1cccc2cc(O)cc(-c3nc4c5c(nc(OC[C@]67CCN6CC(F)(F)C7)nc5c3F)N3C[C@H]5CC[C@H](N5)[C@H]3[C@H](C)O4)c12 (single isomer, unassigned) [Compound 19]	0.08		1.83

— patent US20240025919A1, “AZA-TETRACYCLIC OXAZEPINE COMPOUNDS AND USES THEREOF” (Genentech, Inc., priority 2022, published 2024)
